Data as given in patent US20230139328A1, “DOSAGE FORMS FOR IMPROVING ORGAN TRANSPLANTATION, GRAFT VERSUS HOST DISEASE AND STEM CELLS TRANSPLANTS” (Aphios Corporation, priority 2020, published 2023).
“Also recorded” adds a separate entry of the source.

Assays:
[1] = system: neutrophil migration across HUVEC; assay: Neutrophil transendothelial migration (TEM) restoration studies with PKC inhibitors in HUVEC; assay type: cell-based, human; conditions: 100 nM Bryostatin-1, 100 nM LTB4, 3 h
Protocol: HUVEC were pretreated with G0-6983, a PKC inhibitor with dose dependent specificities for classical vs. novel PKC isoforms for 30 minutes prior to addition of Bryostatin-1 (100 nM) to block neutrophil migration. […] Neutrophil migration towards 100 nM LTB4 was initiated by adding LTB4 to the lower well.
Neutrophil Transendothelial Migration (TEM) Restoration Studies: HUVECs were pretreated with Go-6983 (1, 10, 100 nM), or Go-6976 (1, 10,100 nM) for 30 minutes, then spiked with 100 nM Bryostatin-1 for 1 hour. HUVECs previously nucleofected with PKC-δ, -ε, or control siRNA were just treated in Bryostatin-1 for 1 hour. HUVECs were washed three times and placed in a new plate containing either 500 IL 100 nM LTB4, or HBSS alone for control. Neutrophils were allowed to migrate for 3 h at 37° C. Migration was stopped by removing the inserts and migration was measured using the MPO assay.
Myeloperoxidase Assay: Neutrophil migration was measured using myeloperoxidase (MPO) analysis. Cell culture inserts were first removed, and plates were spun at 1,500 RPM for 5 min. The supernatant was removed, and MPO activity was measured using TMB/peroxide as chromogen. The reaction was stopped with sulfuric acid and absorbance was read at 450 nm using a microplate reader. All experiments were performed n=6. Data was expressed as “% neutrophil migration”, which allowed cumulative statistical analysis to be done and account for unpreventable batch-to-batch variations.

[2] = system: PKC-δ siRNA nucleofected HUVEC; assay: LTB4 mediated neutrophil migration across PKC-δ siRNA nucleofected HUVEC; assay type: cell-based, human; conditions: 100 nM, 1 h; PKC-δ knockdown
Source text: Because studies in FIG. 8 could not discriminate between PKC-δ and […] isoforms mediating the effect of Bryostatin-1, we knocked down individual isoforms using siRNA technology. In order to verify that we could knock down particular isoforms of PKC, specifically PKC-8 and PKC-ε isoforms in HUVEC, siRNA which selectively bind to and eliminate human PKC-8 and PKC-ε mRNAs were nucleofected into HUVEC prior to migration studies. […] HUVEC cells treated using these approaches were then subjected to chemotaxis studies with Bryostatin-1 to elucidate the mechanism of Bryostatin-1 mediated inhibition of LTB4 induced PMN migration.
Neutrophil Transendothelial Migration (TEM) Restoration Studies: HUVECs were pretreated with Go-6983 (1, 10, 100 nM), or Go-6976 (1, 10,100 nM) for 30 minutes, then spiked with 100 nM Bryostatin-1 for 1 hour. […] Migration was stopped by removing the inserts and migration was measured using the MPO assay.
Myeloperoxidase Assay: Neutrophil migration was measured using myeloperoxidase (MPO) analysis. […] The supernatant was removed, and MPO activity was measured using TMB/peroxide as chromogen. The reaction was stopped with sulfuric acid and absorbance was read at 450 nm using a microplate reader. […] Data was expressed as “% neutrophil migration”, which allowed cumulative statistical analysis to be done and account for unpreventable batch-to-batch variations. […]

transplanted kidney = assay: Porcine kidney auto-transplantation model (20 h cold storage, reperfusion); assay type: in vivo, German Landrace pigs; conditions: pig
Protocol: We used the porcine kidney auto-transplantation model with the modified PET formulation of Bryostatin-1 in thirty-two female German Landrace pigs weighing 20 to 40 kg. Briefly, animals had surgery for graft retrieval followed by a standard graft cold storage time (CST) of 20 h. During CST, kidneys were preserved with histidine-tryptophan-ketoglutarate (HTK)-solution either supplemented with 100 nM Bryostatin-1 or an equivalent volume of placebo (PET formulation). Donor animals then had surgery again for renal auto-transplantation and the graft was transplanted orthotopically. Thus, the contralateral kidney was removed to measure specifically function of the transplanted kidney. Time of reperfusion was 8 h and sample collection included cortical renal biopsies, tissue block samples at the end of the study and blood as well as urine analyses.

[3] = HTK-solution with 100 nM Bryostatin-1 during 20 h cold storage vs placebo

For `CCC/C=C/C=C/C(=O)O[C@H]1/C(=C/C(=O)OC)C[C@H]2C[C@H]([C@@H](C)O)OC(=O)C[C@H](O)C[C@@H]3C[C@H](OC(C)=O)C(C)(C)[C@](O)(C[C@@H]4C/C(=C/C(=O)OC)C[C@H](/C=C/C(C)(C)[C@]1(O)O2)O4)O3` [Bryostatin-1], the “effect on LTB4 induced neutrophil migration, HUVEC” value [1] was “reversed; also recorded: significantly suppressed LTB4 induced migration”, the “effect on LTB4 mediated neutrophil migration in PKC-δ siRNA nucleofected HUVEC” value [2] was “restored the normal level of neutrophil trans endothelial migration; also recorded: will not inhibit LTB4 mediated neutrophil migration” and the “serum/plasma and urinary inflammatory biomarkers” value (transplanted kidney; 100 nM Bryostatin-1 in HTK-solution) was “not altered”. The “kidney histology scores at 6 hours” value (transplanted kidney; 100 nM Bryostatin-1 in HTK-solution, 6 hours) was “significantly improved”, the “kidney ultrastructural damage scores” value (transplanted kidney; [3]) was “significantly reduced” and the “neutrophils entering the re-perfused kidney” value (transplanted kidney; [3]) was “significantly prevented”.
